Bridge positions count the residues as written; N and C are the ends. Square brackets hold non-standard residues; d marks the D form. Peptide text beside a SMILES is read from it. 1Nal = N[C@@H](Cc1cccc2ccccc12)C(=O)O
Key:
human Kv1.3 (CHO) = target: T1, human Kv1.3 (CHO) (Homo sapiens, UniProt P22001); assay: cell-based
T1 construct: expressed in transfected cells; host or cells: CHO

human Kv1.1 (HEK293) = target: T2, human Kv1.1 (HEK293) (Homo sapiens, UniProt Q09470); assay: cell-based
T2 construct: expressed in transfected cells; host or cells: HEK293
T2 sequence (Q09470 whole entry): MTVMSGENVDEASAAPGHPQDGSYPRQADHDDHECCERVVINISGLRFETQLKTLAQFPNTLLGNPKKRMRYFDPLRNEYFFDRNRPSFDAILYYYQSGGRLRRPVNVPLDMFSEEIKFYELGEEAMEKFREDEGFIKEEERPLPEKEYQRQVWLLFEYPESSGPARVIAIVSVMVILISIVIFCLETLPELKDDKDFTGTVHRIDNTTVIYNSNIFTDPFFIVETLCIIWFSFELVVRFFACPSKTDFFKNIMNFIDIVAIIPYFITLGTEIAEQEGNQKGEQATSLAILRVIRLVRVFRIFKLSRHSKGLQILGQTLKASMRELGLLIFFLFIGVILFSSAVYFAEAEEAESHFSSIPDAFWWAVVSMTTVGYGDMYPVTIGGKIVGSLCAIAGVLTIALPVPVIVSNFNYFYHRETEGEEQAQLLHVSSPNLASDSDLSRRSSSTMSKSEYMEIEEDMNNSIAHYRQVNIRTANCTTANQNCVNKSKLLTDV

T1 sequence (P22001 whole entry): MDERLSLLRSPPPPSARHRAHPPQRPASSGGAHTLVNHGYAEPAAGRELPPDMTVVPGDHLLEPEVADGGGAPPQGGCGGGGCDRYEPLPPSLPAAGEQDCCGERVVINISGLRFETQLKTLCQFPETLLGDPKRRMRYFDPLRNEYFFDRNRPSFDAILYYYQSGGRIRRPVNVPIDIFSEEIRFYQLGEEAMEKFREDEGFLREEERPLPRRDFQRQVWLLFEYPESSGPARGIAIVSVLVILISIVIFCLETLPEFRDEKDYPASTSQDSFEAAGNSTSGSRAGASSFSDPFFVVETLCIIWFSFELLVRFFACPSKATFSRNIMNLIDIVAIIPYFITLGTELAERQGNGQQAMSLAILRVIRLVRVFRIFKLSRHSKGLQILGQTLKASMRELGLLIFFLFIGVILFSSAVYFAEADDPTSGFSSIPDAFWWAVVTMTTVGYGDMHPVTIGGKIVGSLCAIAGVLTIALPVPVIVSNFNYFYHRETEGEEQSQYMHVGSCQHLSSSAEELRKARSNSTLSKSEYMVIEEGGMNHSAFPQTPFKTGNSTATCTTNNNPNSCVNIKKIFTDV

SMILES | IC50 (human Kv1.3 (CHO)) [nM] | IC50 (human Kv1.1 (HEK293)) [nM]
CC[C@H](C)[C@@H]1NC(=O)[C@H](CCCCN)NC(=O)[C@@H](NC(=O)[C@H](CCCCN)NC(=O)[C@@H](NC(=O)[C@H](CC(N)=O)NC(=O)[C@@H](NC(=O)[C@@H](NC(=O)[C@@H](NC(=O)CN)C(C)C)[C@@H](C)CC)[C@@H](C)CC)C(C)C)CSSC[C@@H]2NC(=O)[C@H](CCCCN)NC(=O)CNC(=O)[C@H](Cc3ccccc3)NC(=O)[C@H](CCCNC(=N)N)NC(=O)[C@H](CCSC)NC(=O)CNC(=O)[C@H](C)NC(=O)[C@H](CCCCN)NC(=O)[C@H](C)NC(=O)[C@@H]3CSSC[C@@H](C(=O)N[C@H](C(=O)N4CCC[C@H]4C(=O)N[C@@H](CCCCN)C(=O)O)[C@@H](C)O)NC(=O)[C@H](Cc4c[nH]cn4)NC(=O)[C@H](CSSC[C@H](NC(=O)[C@H](CCC(N)=O)NC(=O)[C@H](CCCNC(=N)N)NC(=O)[C@H](CO)NC1=O)C(=O)N[C@@H](CC(C)C)C(=O)N[C@@H](CCC(=O)O)C(=O)N1CCC[C@H]1C(=O)N3)NC(=O)[C@H](CCCCN)NC(=O)CNC(=O)[C@H](CC(N)=O)NC(=O)[C@H](CCSC)NC2=O [K19A] (H-GVIINVKCKISRQCLEPCAKAGMRFGKCMNGKCHCTPK-OH; disulfide 8-28, 14-33, 18-35) | 0.21 | 0.0168
CC[C@H](C)[C@@H]1NC(=O)[C@H](CCCCN)NC(=O)[C@@H](NC(=O)[C@H](CCCCN)NC(=O)[C@@H](NC(=O)[C@H](C)NC(=O)[C@@H](NC(=O)[C@@H](NC(=O)[C@@H](NC(=O)CN)C(C)C)[C@@H](C)CC)[C@@H](C)CC)C(C)C)CSSC[C@@H]2NC(=O)[C@H](CCCCN)NC(=O)CNC(=O)[C@H](Cc3ccccc3)NC(=O)[C@H](CCCNC(=N)N)NC(=O)[C@H](CCSC)NC(=O)CNC(=O)[C@H](C)NC(=O)[C@H](CCCCN)NC(=O)[C@H](CCCCN)NC(=O)[C@@H]3CSSC[C@@H](C(=O)N[C@H](C(=O)N4CCC[C@H]4C(=O)N[C@@H](CCCCN)C(=O)O)[C@@H](C)O)NC(=O)[C@H](Cc4c[nH]cn4)NC(=O)[C@H](CSSC[C@H](NC(=O)[C@H](CCC(N)=O)NC(=O)[C@H](CCCNC(=N)N)NC(=O)[C@H](CO)NC1=O)C(=O)N[C@@H](CC(C)C)C(=O)N[C@@H](CCC(=O)O)C(=O)N1CCC[C@H]1C(=O)N3)NC(=O)[C@H](CCCCN)NC(=O)CNC(=O)[C@H](CC(N)=O)NC(=O)[C@H](CCSC)NC2=O [N5A] (H-GVIIAVKCKISRQCLEPCKKAGMRFGKCMNGKCHCTPK-OH; disulfide 8-28, 14-33, 18-35) | 0.16 | 0.014
CC[C@H](C)[C@@H]1NC(=O)[C@H](CCCNC(=N)N)NC(=O)[C@@H](NC(=O)[C@H](CCCCN)NC(=O)[C@@H](NC(=O)[C@H](CC(N)=O)NC(=O)[C@@H](NC(=O)[C@@H](NC(=O)[C@@H](NC(=O)CN)C(C)C)[C@@H](C)CC)[C@@H](C)CC)C(C)C)CSSC[C@@H]2NC(=O)[C@H](CCCCN)NC(=O)CNC(=O)[C@H](Cc3ccccc3)NC(=O)[C@H](CCCNC(=N)N)NC(=O)[C@H](CCSC)NC(=O)CNC(=O)[C@H](C)NC(=O)[C@H](CCCCN)NC(=O)[C@H](CCCCN)NC(=O)[C@@H]3CSSC[C@@H](C(=O)N[C@H](C(=O)N4CCC[C@H]4C(=O)N[C@@H](CCCCN)C(=O)O)[C@@H](C)O)NC(=O)[C@H](Cc4c[nH]cn4)NC(=O)[C@H](CSSC[C@H](NC(=O)[C@H](CCC(N)=O)NC(=O)[C@H](CCCNC(=N)N)NC(=O)[C@H](CO)NC1=O)C(=O)N[C@@H](CC(C)C)C(=O)N[C@@H](CCC(=O)O)C(=O)N1CCC[C@H]1C(=O)N3)NC(=O)[C@H](CCCCN)NC(=O)CNC(=O)[C@H](CC(N)=O)NC(=O)[C@H](CCSC)NC2=O [K9R] (H-GVIINVKCRISRQCLEPCKKAGMRFGKCMNGKCHCTPK-OH; disulfide 8-28, 14-33, 18-35) | 0.012 | 0.00201
CC[C@H](C)[C@@H]1NC(=O)[C@H](CCCCN)NC(=O)[C@@H](NC(=O)[C@H](CCCCN)NC(=O)[C@@H](NC(=O)[C@H](CC(N)=O)NC(=O)[C@H](C)NC(=O)[C@@H](NC(=O)[C@@H](NC(=O)CN)C(C)C)[C@@H](C)CC)C(C)C)CSSC[C@@H]2NC(=O)[C@H](CCCCN)NC(=O)CNC(=O)[C@H](Cc3ccccc3)NC(=O)[C@H](CCCNC(=N)N)NC(=O)[C@H](CCSC)NC(=O)CNC(=O)[C@H](C)NC(=O)[C@H](CCCCN)NC(=O)[C@H](CCCCN)NC(=O)[C@@H]3CSSC[C@@H](C(=O)N[C@H](C(=O)N4CCC[C@H]4C(=O)N[C@@H](CCCCN)C(=O)O)[C@@H](C)O)NC(=O)[C@H](Cc4c[nH]cn4)NC(=O)[C@H](CSSC[C@H](NC(=O)[C@H](CCC(N)=O)NC(=O)[C@H](CCCNC(=N)N)NC(=O)[C@H](CO)NC1=O)C(=O)N[C@@H](CC(C)C)C(=O)N[C@@H](CCC(=O)O)C(=O)N1CCC[C@H]1C(=O)N3)NC(=O)[C@H](CCCCN)NC(=O)CNC(=O)[C@H](CC(N)=O)NC(=O)[C@H](CCSC)NC2=O [I4A] (H-GVIANVKCKISRQCLEPCKKAGMRFGKCMNGKCHCTPK-OH; disulfide 8-28, 14-33, 18-35) | 0.195 | 0.0169
CC[C@H](C)[C@@H]1NC(=O)[C@H](CCCCN)NC(=O)[C@@H](NC(=O)[C@H](CCCCN)NC(=O)[C@@H](NC(=O)[C@H](CC(N)=O)NC(=O)[C@@H](NC(=O)[C@@H](NC(=O)[C@@H](NC(=O)CN)C(C)C)[C@@H](C)CC)[C@@H](C)CC)C(C)C)CSSC[C@@H]2NC(=O)[C@H](CCCCN)NC(=O)CNC(=O)[C@H](Cc3ccccc3)NC(=O)[C@H](CCCNC(=N)N)NC(=O)[C@H](CCSC)NC(=O)CNC(=O)[C@H](C)NC(=O)[C@H](CCCCN)NC(=O)[C@H](CCCCN)NC(=O)[C@@H]3CSSC[C@@H](C(=O)N[C@H](C(=O)N4CCC[C@H]4C(=O)N[C@@H](CCCCN)C(=O)O)[C@@H](C)O)NC(=O)[C@H](Cc4c[nH]cn4)NC(=O)[C@H](CSSC[C@H](NC(=O)[C@H](CCC(N)=O)NC(=O)[C@H](CCCNC(=N)N)NC(=O)[C@H](CO)NC1=O)C(=O)N[C@@H](CC(C)C)C(=O)N[C@@H](CCC(=O)O)C(=O)N[C@@H](C)C(=O)N3)NC(=O)[C@H](CCCCN)NC(=O)CNC(=O)[C@H](CC(N)=O)NC(=O)[C@H](CCSC)NC2=O [P17A] (H-GVIINVKCKISRQCLEACKKAGMRFGKCMNGKCHCTPK-OH; disulfide 8-28, 14-33, 18-35) | 0.0339 | 0.00908
CC[C@H](C)[C@@H]1NC(=O)[C@H](CCCCN)NC(=O)[C@@H](NC(=O)[C@H](CCCCN)NC(=O)[C@@H](NC(=O)[C@H](CC(N)=O)NC(=O)[C@@H](NC(=O)[C@@H](NC(=O)[C@@H](NC(=O)CN)C(C)C)[C@@H](C)CC)[C@@H](C)CC)C(C)C)CSSC[C@@H]2NC(=O)[C@H](CCCCN)NC(=O)CNC(=O)[C@H](Cc3ccccc3)NC(=O)[C@H](CCCNC(=N)N)NC(=O)[C@H](CCSC)NC(=O)CNC(=O)[C@H](C)NC(=O)[C@H](CCCCN)NC(=O)[C@H](CCCCN)NC(=O)[C@@H]3CSSC[C@@H](C(=O)N[C@H](C(=O)N[C@@H](CCCNC(=N)N)C(=O)N[C@@H](CCCCN)C(=O)O)[C@@H](C)O)NC(=O)[C@H](Cc4c[nH]cn4)NC(=O)[C@H](CSSC[C@H](NC(=O)[C@H](CCC(N)=O)NC(=O)[C@H](CCCNC(=N)N)NC(=O)[C@H](CO)NC1=O)C(=O)N[C@@H](CC(C)C)C(=O)N[C@@H](CCC(=O)O)C(=O)N1CCC[C@H]1C(=O)N3)NC(=O)[C@H](CCCCN)NC(=O)CNC(=O)[C@H](CC(N)=O)NC(=O)[C@H](CCSC)NC2=O [P37R] (H-GVIINVKCKISRQCLEPCKKAGMRFGKCMNGKCHCTRK-OH; disulfide 8-28, 14-33, 18-35) | 0.0133 | 0.00201
CC[C@H](C)[C@@H]1NC(=O)[C@H](CCCCN)NC(=O)[C@@H](NC(=O)[C@H](CCCCN)NC(=O)[C@@H](NC(=O)[C@H](CC(N)=O)NC(=O)[C@@H](NC(=O)[C@@H](NC(=O)[C@@H](NC(=O)CN)C(C)C)[C@@H](C)CC)[C@@H](C)CC)C(C)C)CSSC[C@@H]2NC(=O)[C@H](CCC(=O)O)NC(=O)CNC(=O)[C@H](Cc3ccccc3)NC(=O)[C@H](CCCNC(=N)N)NC(=O)[C@H](CCSC)NC(=O)CNC(=O)[C@H](C)NC(=O)[C@H](CCCCN)NC(=O)[C@H](CCCCN)NC(=O)[C@@H]3CSSC[C@@H](C(=O)N[C@H](C(=O)N4CCC[C@H]4C(=O)N[C@@H](CCCCN)C(=O)O)[C@@H](C)O)NC(=O)[C@H](Cc4c[nH]cn4)NC(=O)[C@H](CSSC[C@H](NC(=O)[C@H](CCC(N)=O)NC(=O)[C@H](CCCNC(=N)N)NC(=O)[C@H](CO)NC1=O)C(=O)N[C@@H](CC(C)C)C(=O)N[C@@H](CCC(=O)O)C(=O)N1CCC[C@H]1C(=O)N3)NC(=O)[C@H](CCCCN)NC(=O)CNC(=O)[C@H](CC(N)=O)NC(=O)[C@H](CCSC)NC2=O [K27E] (H-GVIINVKCKISRQCLEPCKKAGMRFGECMNGKCHCTPK-OH; disulfide 8-28, 14-33, 18-35) | > 3.33 | 0.549
CC[C@H](C)[C@@H]1NC(=O)[C@H](CCCCN)NC(=O)[C@@H](NC(=O)[C@H](CCCCN)NC(=O)[C@@H](NC(=O)[C@H](CC(N)=O)NC(=O)[C@H](Cc2cccc3ccccc23)NC(=O)[C@@H](NC(=O)[C@@H](NC(=O)CN)C(C)C)[C@@H](C)CC)C(C)C)CSSC[C@@H]2NC(=O)[C@H](CCCCN)NC(=O)CNC(=O)[C@H](Cc3ccccc3)NC(=O)[C@H](CCCNC(=N)N)NC(=O)[C@H](CCSC)NC(=O)CNC(=O)[C@H](C)NC(=O)[C@H](CCCCN)NC(=O)[C@H](CCCCN)NC(=O)[C@@H]3CSSC[C@@H](C(=O)N[C@H](C(=O)N4CCC[C@H]4C(=O)N[C@@H](CCCCN)C(=O)O)[C@@H](C)O)NC(=O)[C@H](Cc4c[nH]cn4)NC(=O)[C@H](CSSC[C@H](NC(=O)[C@H](CCC(N)=O)NC(=O)[C@H](CCCNC(=N)N)NC(=O)[C@H](CO)NC1=O)C(=O)N[C@@H](CC(C)C)C(=O)N[C@@H](CCC(=O)O)C(=O)N1CCC[C@H]1C(=O)N3)NC(=O)[C@H](CCCCN)NC(=O)CNC(=O)[C@H](CC(N)=O)NC(=O)[C@H](CCSC)NC2=O [I4Nal] (H-GVI[1Nal]NVKCKISRQCLEPCKKAGMRFGKCMNGKCHCTPK-OH; disulfide 8-28, 14-33, 18-35) | 0.015 | < 0.00152
